According to patent publication US10407408B2, “Imide derivatives and use thereof as medicine” (MITSUBISHI TANABE PHARMA CORPORATION, priority 2015, dated 2019):

System: proMMP-9 production by human TNFα stimulated THP-1 cell
Experiment: Action on proMMP-9 production by human TNFα stimulated THP-1 cell (ELISA of culture supernatant)
Assay type: cell-based
Details: THP-1 cells, human TNFα 10 ng/mL, 24 hr; IC50 from 3 concentrations (5, 50, 500 or 1, 10, 100 nmol/L); read-out: proMMP-9 suppression rate IC50
Description: Experimental Example 1: Action of Human TNFα Stimulated THP-1 Cell on proMMP-9 Production
THP-1 cell (human monocytic leukemia cell line) was adjusted to 1×10^7 cells/mL in a culture medium (10% fetal bovine serum/RPMI1640 medium), and dispensed to a 96 well multiplate. This was equilibrated under the conditions of 37° C./5% CO2, and a culture medium containing human TNFα (final concentration 10 ng/mL) and a test compound was dissolved therein. After incubation under the conditions of 37° C./5% CO2 for 24 hr, the culture medium was centrifuged and the culture supernatant was collected, which was subjected to the following measurement.
Quantification of proMMP-9 in Culture Supernatant
The proMMP-9 concentration of the collected culture supernatant was quantified using a commercially available measurement reagent (manufactured by GE Healthcare, MMP-9, Human, Biotrak ELISA System).
Calculation of proMMP-9 Suppression Rate
The proMMP-9 suppression rate of the test compound was calculated from the following formula: % suppression=100−((Test−Min)/(Max−Min)×100) wherein Max is proMMP-9 concentration of culture supernatant induced by stimulation with human TNFα, without addition of a test compound (added with solvent alone) Min is proMMP-9 concentration of culture supernatant without addition of a test compound (added with solvent alone) and without stimulation with human TNFα, and Test is proMMP-9 concentration of culture supernatant induced by stimulation with human TNFα when a test compound is added.
Furthermore, the concentration of the test compound necessary for suppressing proMMP-9 production by human TNFα stimulated THP-1 cell by 50% (IC50 value) was calculated from 3 points of proMMP-9 suppression rate at test compound concentrations of 5, 50 and 500 nmol/L or 1, 10 and 100 nmol/L.
MMP-9 is produced as a precursor proMMP-9 by the stimulated cells, extracellularly activated and expresses the physiological activity as MMP-9. That is, evaluation of the suppression of proMMP-9 produced by the cell means evaluation of the suppression of production of MMP-9. The same applies to MMP-2, and evaluation of the suppression of proMMP-2 produced by the cell means evaluation of the suppression of production of MMP-2.

Row | SMILES | IC50
1 | COCC1CN(C(=O)c2ccc([C@@]3(C(C)C)NC(=O)NC3=O)cc2)CCN1c1ncc(C)cc1C (stereo partly drawn) [Example 66, (R)-5-{4-[4-(3,5-dimethylpyridin-2-yl)-3-methoxymethylpiperazine-1-carbonyl]phenyl}-5-isopropylimidazolidine-2,4-dione] | < 5 nM
2 | Cc1cnc(N2CCN(C(=O)c3ccc(C4(CF)NC(=O)NC4=O)cc3)C(C)(C)C2)c(C)c1 (centres unmarked) [Example 69, 5-{4-[4-(3,5-dimethylpyridin-2-yl)-2,2-dimethylpiperazine-1-carbonyl]phenyl}-5-fluoromethylimidazolidine-2,4-dione] | 11 nM
3 | Cc1ccc(-c2cnn(C3CCN(C(=O)c4ccc([C@@]5(C)NC(=O)NC5=O)cc4)CC3)c2)cc1 [Example 346, (R)-5-methyl-5-{4-[4-(4-p-toluylpyrazol-1-yl)piperidine-1-carbonyl]phenyl}imidazolidine-2,4-dione] | 88 nM
4 | Cc1cc(C2(C)NC(=O)NC2=O)ccc1C(=O)N1CCN(c2nc(C)c(C)cc2C)CC1 (centres unmarked) [Example 126, 5-methyl-5-{3-methyl-4-[4-(3,5,6-trimethylpyridin-2-yl)piperazine-1-carbonyl]phenyl}imidazolidine-2,4-dione] | 8 nM
5 | Cc1cnc(N[C@H]2C[C@@H](C#N)N(C(=O)c3ccc([C@@]4(C(C)C)NC(=O)NC4=O)cc3)C2)c(C)c1 [Example 198, (2S,4S)-4-(3,5-dimethylpyridin-2-ylamino)-1-[4-((R)-4-isopropyl-2,5-dioxoimidazolidin-4-yl)benzoyl]pyrrolidine-2-carbonitrile] | 2 nM
6 | Cc1ccc(C(=O)C2CCN(C(=O)c3ccc([C@@]4(C)NC(=O)NC4=O)cc3)CC2)cc1 [Example 150, (R)-5-methyl-5-{4-[4-(4-methylbenzoyl)piperidine-1-carbonyl]phenyl}imidazolidine-2,4-dione] | 25 nM
7 | Cc1cc(F)c2c(C3CCN(C(=O)c4ccc([C@@]5(C)NC(=O)NC5=O)cc4)CC3)n[nH]c2c1 [Example 280, (R)-5-{4-[4-(4-fluoro-6-methyl-1H-indazol-3-yl)piperidine-1-carbonyl]phenyl}-5-methylimidazolidine-2,4-dione] | < 5 nM
8 | Cc1cc(C)c(N2CCN(C(=O)c3ccc(C4(c5ccccc5)NC(=O)NC4=O)cc3)CC2)nc1C (centres unmarked) [Example 108, 5-phenyl-5-{4-[4-(3,5,6-trimethylpyridin-2-yl)piperazine-1-carbonyl]phenyl}imidazolidine-2,4-dione] | 11 nM
9 | Cc1cnc2c(c1)CCN2[C@H]1CCN(C(=O)c2ccc([C@@]3(C(C)C)NC(=O)NC3=O)cc2)C1 [Example 158, (R)-5-isopropyl-5-{4-[(S)-3-(5-methyl-2,3-dihydropyrrolo[2,3-b]pyridin-1-yl)pyrrolidine-1-carbonyl]phenyl}imidazolidine-2,4-dione] | 49 nM
10 | CC[C@]1(c2ccc(C(=O)N3CCC(c4nnn(-c5ccc(C)cc5)n4)CC3)cc2)NC(=O)NC1=O [Example 170, (R)-5-ethyl-5-{4-[4-(2-p-tolyl-2H-tetrazol-5-yl)piperidine-1-carbonyl]phenyl}imidazolidine-2,4-dione] | 60 nM

Further lines, results first:

Row | IC50 | SMILES
11 | 90 nM | CCC1(c2ccc(C(=O)N3CCC(c4cc(-c5ccc(C)cc5)[nH]n4)CC3)cn2)CC(=O)NC1=O (centres unmarked) [Example 165, 3-ethyl-3-{5-[4-(5-p-tolyl-1H-pyrazol-3-yl)piperidine-1-carbonyl}pyridin-2-yl}pyrrolidine-2,5-dione]
12 | 82 nM | Cc1cnc(N2CCN(C(=O)c3ccc(C4(C(C)C)NC(=O)NC4=O)s3)CC2)c(C)c1 (centres unmarked) [Example 114, 5-{5-[4-(3,5-dimethylpyridin-2-yl)piperazine-1-carbonyl]thiophen-2-yl}-5-isopropylimidazolidine-2,4-dione]
13 | 72 nM | Cc1ccc2nc(C3CCN(C(=O)c4ccc([C@@]5(C(C)C)NC(=O)NC5=O)cc4)CC3)oc2n1 [Example 221, (R)-5-isopropyl-5-{4-[4-(5-methyloxazolo[5,4-b]pyridin-2-yl)piperidine-1-carbonyl]phenyl}imidazolidine-2,4-dione]
14 | 60 nM | CC(C)[C@]1(c2ccc(C(=O)N3CCC(c4ncc(-c5ccccc5)s4)CC3)cc2)NC(=O)NC1=O [Example 259, (R)-5-isopropyl-5-{4-[4-(5-phenylthiazol-2-yl)piperidine-1-carbonyl]phenyl}imidazolidine-2,4-dione]
15 | 11 nM | COC1(C2(c3ccc(C(=O)N4CCN(c5ncc(C)cc5C)CC4)cc3)NC(=O)NC2=O)CC1 (centres unmarked) [Example 112, 5-{4-[4-(3,5-dimethylpyridin-2-yl)piperazine-1-carbonyl]phenyl}-5-(1-methoxycyclopropyl) imidazolidine-2,4-dione]
16 | 1 nM | Cc1cnc(N2CCN(C(=O)c3ccc(C4(C(C)(C)C)NC(=O)NC4=O)cn3)CC2)c(C)c1 (centres unmarked) [Example 335, 5-tert-butyl-5-{6-[4-(3,5-dimethylpyridin-2-yl)piperazine-1-carbonyl]pyridin-3-yl}imidazolidine-2,4-dione]

System: rat monoiodoacetic acid-induced osteoarthritis model
Experiment: Suppressive action on joints injury marker COMP in rat monoiodoacetic acid-induced osteoarthritis model
Assay type: in vivo
Details: comparison compound of patent document 3 (WO 2011/136292); rat, oral, 1 mg/kg once per day
Description: Experimental Example 3 Suppressive Action on Articular Joints Injury Marker Free of Rat Monoiodoacetic Acid-Induced Osteoarthritis Model
Monoiodoacetic acid solution (0.3 mg/25 μL) was injected into the right hindpaw knee joint cavity of anesthetized rats (LEW, male, 7-week-old). […] On day 5, cold phosphate buffer (20 μL) was injected into the right hindpaw knee joint cavity of the euthanized rats, and the joint cavity washing was collected. The joints injury marker COMP (Cartilage Oligomeric Matrix Protein) concentration of the joint cavity washing was quantified using a commercially available measurement reagent (Animal COMP ELISA Kit manufactured by Anamer Medical).
Calculation of Joints Injury Marker COMP Suppression Rate
The COMP suppression rate of the test compound was calculated from the following formula: % suppression=100−((Test−Min)/(Max−Min)×100) wherein Max is a COMP concentration of the joint cavity washing of the pathology group administered with a monoiodoacetic acid solution (oral administration of solvent alone), Min is a COMP concentration of the joint cavity washing of the non-treatment normal group (oral administration of solvent alone), and Test is a COMP concentration of the joint cavity washing of the test compound administration group.

Row | SMILES | Joints injury marker COMP suppression rate (%)
17 | Cc1cnc(N2CCN(C(=O)c3ccc(N4C(=O)NC(=O)C4C)cc3)CC2)c(C)c1 (centres unmarked) [Example 450, reference compound] | 14.4%

Same assay, conditions: comparison compound of patent document 3 (WO 2011/136292); rat, oral, 3 mg/kg once per day

Row | SMILES | Joints injury marker COMP suppression rate (%)
18 | Cc1cnc(N2CCN(C(=O)c3ccc(N4C(=O)NC(=O)C4C(C)C)cc3)CC2)c(C)c1 (centres unmarked) [Example 571, reference compound] | 55.3%

Same assay, conditions: rat (LEW), oral, 0.1 mg/kg once per day, joint cavity washing on day 5

Row | SMILES | Joints injury marker COMP suppression rate (%)
19 | Cc1cnc(N2CCN(C(=O)c3ccc([C@@]4(C(C)C)NC(=O)NC4=O)cc3)CC2)c(C)c1 [Example 8, (R)-5-{4-[4-(3,5-dimethylpyridin-2-yl)piperazine-1-carbonyl]phenyl}-5-isopropylimidazolidine-2,4-dione] | 84.3%

Same assay, conditions: rat monoiodoacetic acid model, 0.1 mg/kg versus 3 mg/kg once per day

Row | SMILES | superiority in joints injury marker COMP suppression rate compared with Example 571 described in patent document 3
20 | Cc1cnc(N2CCN(C(=O)c3ccc([C@@]4(C(C)C)NC(=O)NC4=O)cc3)CC2)c(C)c1 [Example 8, (R)-5-{4-[4-(3,5-dimethylpyridin-2-yl)piperazine-1-carbonyl]phenyl}-5-isopropylimidazolidine-2,4-dione] | at least 30 fold
